Laboratory results from publication PMC8470058 (Antibiotics, 2021).

Legend:
[1] = Voriconazole-related adverse events in Child–Pugh class C patients; format: in vivo, human
Excerpt: Forty-three CP-C Asian patients were eligible to participate in the study (Figure 1a). The female-to-male ratio was 4/39. The mean patient age and weight were 49.35 ± 11.65 years (range, 32 to 89 years) and 61.27 ± 12.87 kg (range, 36 to 99 kg). […] The median sampling time of C0 was 5 days (interquartile range (IQR), 3 to 5 days; range, 3 to 11 days).
Researchers conducted the prospective observational study and collected the hospital information and laboratory information at one tertiary hospital from January 2018 to December 2019. […] The administration regimen is mainly under empirical treatment regimens, and the adjustment is generally based on the results of TDM. This study was approved by the Ethics Committee of The Second XiangYa Hospital of Central South University with an approved NO. yxlb-lays-2018012.
Data were extracted from medical records and laboratory information systems, including voriconazole-related information (Cmins, timing, amount, route), demographics, laboratory data, and concomitant medications (antimicrobial agents, CYP2C19 inducers, and inhibitors). The first trough concentration, the repeated measured ones and the last one of patients were recorded as C0, C1, Css, respectively. The Child–Pugh class and MELD score were calculated based on previous criteria.

[2] = both, human, in vivo
Procedure: Researchers conducted the prospective observational study and collected the hospital information and laboratory information at one tertiary hospital from January 2018 to December 2019. […] This study was approved by the Ethics Committee of The Second […] Hospital of Central South University with an approved NO. yxlb-lays-2018012. Venous blood samples (2 mL) were collected into anticoagulant tubes. […] Monitoring continued every 3 days. […] The two-dimensional separation conditions consisted of FRO C18 (100 mm × 3.0 mm, 5 μm, ANAX) and ASTON HD C18 (150 mm × 4.6 mm, 5 μm, ANAX) with the same flow rate 1.0 mL/min. […] This laboratory participated in the annual national external quality assessment scheme. […] The Child-Pugh class and MELD score were calculated based on previous criteria. The Pearson correlation and nonparametric Spearman correlation were used to study the relationship between clinical or laboratory data and Cmins during the therapy, according to the type of variables. […] The Cmins measured after withdrawal or lack of the corresponding key values of clinical or laboratory data were excluded in pairs in the bivariate correlation analysis or in rows in the multiple linear regression. For the regression analysis, the genotype of CYP2C19 was set as a dummy variable.

[3] = cited from earlier work
[4] = CP-C patients in ICU; cited from earlier work

- Decrease of Cmin in male patients compared to the female [2]: 1651 ng/mL
- Decrease of concentration with a one-unit increase in PTA count [2]: 0.035 mg/L
- Patients with targeted C0 reaching supratherapeutic levels with no adjusted daily dose [2]: 25.8%
SMILES: C[C@@H](c1ncncc1F)[C@](O)(Cn1cncn1)c1ccc(F)cc1F [voriconazole]
- Patients with adverse events identified as voriconazole related ([1]; 20 of 43 patients, dizziness, hallucinations, visual disturbance): 46.5%
- Median duration from voriconazole initiation to onset of adverse events ([1]; range, 1 to 12 days): 2 days
- Oral bioavailability [3]: 91.6%
- Change of terminal half-life (t1/2) [4]: increased about five times
- Median terminal t1/2 [4]: 60.7 h
